Data from PMC11841048 (ACS Infectious Diseases, 2025).
“And” between values parts separate entries of the source, which are not always exact repeats. Equal values may be shown once. Read-outs that look alike come from different tables or passages of the source.

How the values were obtained:
BaIMPDH (wild-type) [1] = molecular target: T1, BaIMPDH (wild-type) (Bacillus anthracis, UniProt A0A6L8P2U9); assay: biochemical; conditions: Ki,app
CjIMPDH = CjIMPDH (Campylobacter jejuni, UniProt Q0P9J4, DEL92-194/T195G); assay: biochemical; conditions: Ki,app
Ba-, Cj-, and ClpIMPDH = type: biochemical
BaIMPDH = BaIMPDH (Bacillus anthracis, UniProt A0A6L8P2U9); assay: biochemical; type: biochemical
BaIMPDH, sequence (A0A6L8P2U9 221-487, added parts left off): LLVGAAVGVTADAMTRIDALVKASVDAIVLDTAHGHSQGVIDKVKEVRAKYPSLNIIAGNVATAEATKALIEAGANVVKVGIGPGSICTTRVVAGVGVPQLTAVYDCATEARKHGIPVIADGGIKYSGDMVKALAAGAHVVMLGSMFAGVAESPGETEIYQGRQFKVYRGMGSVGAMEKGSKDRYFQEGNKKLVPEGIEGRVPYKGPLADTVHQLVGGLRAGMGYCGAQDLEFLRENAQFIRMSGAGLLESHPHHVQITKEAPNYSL

BaIMPDH (wild-type) [2] = molecular target: T1, BaIMPDH (wild-type); assay: biochemical; type: biochemical
BaIMPDH (wild-type) [3] = molecular target: T1, BaIMPDH (wild-type); assay: biochemical
SpIMPDH = SpIMPDH (Streptococcus pyogenes, UniProt P0C0H6); assay: biochemical
SpIMPDH, sequence (P0C0H6 whole entry): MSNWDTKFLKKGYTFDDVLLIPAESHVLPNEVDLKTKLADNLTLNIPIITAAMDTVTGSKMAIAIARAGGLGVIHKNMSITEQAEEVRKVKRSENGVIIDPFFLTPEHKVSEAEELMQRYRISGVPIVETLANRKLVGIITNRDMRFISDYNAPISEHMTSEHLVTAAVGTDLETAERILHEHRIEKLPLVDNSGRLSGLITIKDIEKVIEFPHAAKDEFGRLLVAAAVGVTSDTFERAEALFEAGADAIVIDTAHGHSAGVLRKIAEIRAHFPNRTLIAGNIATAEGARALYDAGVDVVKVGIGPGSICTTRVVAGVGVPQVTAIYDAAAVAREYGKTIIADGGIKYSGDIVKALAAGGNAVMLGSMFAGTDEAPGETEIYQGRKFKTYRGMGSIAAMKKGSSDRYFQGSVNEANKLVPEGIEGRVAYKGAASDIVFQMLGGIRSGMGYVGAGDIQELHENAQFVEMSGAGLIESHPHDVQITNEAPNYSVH

CpIMPDH = CpIMPDH (Cryptosporidium parvum, UniProt Q8T6T2); assay: biochemical
CpIMPDH, sequence (Q8T6T2 whole entry): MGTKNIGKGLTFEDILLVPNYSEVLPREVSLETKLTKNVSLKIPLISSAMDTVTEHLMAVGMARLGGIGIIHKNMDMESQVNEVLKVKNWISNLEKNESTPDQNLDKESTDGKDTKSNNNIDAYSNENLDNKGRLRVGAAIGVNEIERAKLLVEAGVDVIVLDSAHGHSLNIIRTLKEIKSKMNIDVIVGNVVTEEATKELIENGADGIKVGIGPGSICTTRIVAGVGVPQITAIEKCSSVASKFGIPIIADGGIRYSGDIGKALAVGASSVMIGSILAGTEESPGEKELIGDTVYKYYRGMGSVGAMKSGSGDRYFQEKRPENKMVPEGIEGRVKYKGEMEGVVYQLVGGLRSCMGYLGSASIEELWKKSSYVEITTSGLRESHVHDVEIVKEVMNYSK

SaIMPDH = SaIMPDH (Staphylococcus aureus, UniProt Q6GJQ7); assay: biochemical
SaIMPDH, sequence (Q6GJQ7 whole entry): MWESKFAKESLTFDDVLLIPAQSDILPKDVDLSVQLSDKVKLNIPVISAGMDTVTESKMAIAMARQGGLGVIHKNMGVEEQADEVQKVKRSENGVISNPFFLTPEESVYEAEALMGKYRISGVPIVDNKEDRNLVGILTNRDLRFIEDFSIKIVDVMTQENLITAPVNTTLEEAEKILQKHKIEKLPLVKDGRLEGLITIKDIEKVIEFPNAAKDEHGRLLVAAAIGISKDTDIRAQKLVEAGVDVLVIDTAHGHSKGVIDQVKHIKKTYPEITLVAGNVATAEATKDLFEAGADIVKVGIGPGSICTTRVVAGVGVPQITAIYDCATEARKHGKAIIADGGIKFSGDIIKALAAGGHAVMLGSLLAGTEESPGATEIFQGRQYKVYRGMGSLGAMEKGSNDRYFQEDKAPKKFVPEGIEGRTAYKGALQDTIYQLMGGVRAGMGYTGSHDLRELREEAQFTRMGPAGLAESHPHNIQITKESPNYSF

BaIMPDH (wild-type) [4] = molecular target: T1, BaIMPDH (wild-type); assay: biochemical; remark: listed apart in the source
BaIMPDH (wild-type) [5] = conditions: cited from earlier work
BaIMPDH (wild-type) [6] = molecular target: T1, BaIMPDH (wild-type); type: biochemical
[7] = k–8/k8, inhibitor dissociation constant from E·IMP
[8] = k–9/k9, inhibitor dissociation constant from E-XMP*

T1 sequence (A0A6L8P2U9 221-487, added parts left off): as the sequence (A0A6L8P2U9 221-487, added parts left off) above

CC(C)(NC(=O)Nc1ccc(Cl)cc1)c1cccc(/C(N)=N/O)c1 [P200]
Ki (BaIMPDH (wild-type) [1]): 0.016 µM
Ki (CjIMPDH): 0.145 ± 0.04 µM
difference in affinity across the three enzymes (Ba-, Cj-, and ClpIMPDH): > 5 fold

C=C(C)c1cccc(C(C)(C)NC(=O)Nc2ccc(Cl)c(OCC(=O)O)c2)c1 [P225]
Ki (BaIMPDH (wild-type) [1]): 0.004 µM and 0.00043 µM
Ki (CjIMPDH): 0.02 ± 0.01 µM

Nc1ncnc2c1ncn2[C@@H]1O[C@H](COP(=O)(O)OP(=O)(O)O)[C@@H](O)[C@H]1O [ADP]
Ki (BaIMPDH; read-out: Ki,app): 6200 µM

NC(=O)c1csc([C@@H]2O[C@H](CO)[C@@H](O)[C@H]2O)n1 [tiazofurin]
Ki (BaIMPDH): 620 µM

C=C(C)c1cccc(C(C)(C)NC(=O)Nc2ccc(Cl)c(NC3OCC(O)C(O)C3O)c2)c1 (stereo not shown) [P176]
Ki (BaIMPDH (wild-type) [1]): 0.016 µM
Ki (CjIMPDH): 0.177 µM and 0.077 µM

C=C(C)c1cccc(C(C)(C)NC(=O)Nc2ccc(Cl)c(NC3OC[C@@H](O)[C@H](O)[C@@H]3O)c2)c1 (stereo partly shown) [P221]
Ki (BaIMPDH (wild-type) [1]): 0.02 µM
Ki (CjIMPDH): 0.046 µM

NC(=O)C1=CN([C@@H]2O[C@H](COP(=O)(O)OP(=O)(O)OC[C@H]3O[C@@H](n4cnc5c(N)ncnc54)[C@H](O)[C@@H]3O)[C@@H](O)[C@H]2O)C=CC1 [NADH]
k4 (NADH release) (BaIMPDH (wild-type) [2]): >446 s^–1
k–4 (NADH association) (BaIMPDH (wild-type) [2]): >3.8 μM^–1 s^–1
Kd (BaIMPDH (wild-type) [2]; read-out: k4/k–4): 120 µM

C/C(=N\OCCN)c1cccc(C(C)(C)NC(=O)Nc2ccc(Cl)c([N+](=O)[O-])c2)c1 [P131]
Kd (BaIMPDH (wild-type) [3]; [7]): 0.11 µM
Kd (BaIMPDH (wild-type) [3]; [8]): 0.061 µM
Ki (BaIMPDH (wild-type) [1]): 0.094 µM

C/C(=N\O)c1cccc(C(C)(C)NC(=O)Nc2ccc(Cl)c(-c3nc(C(F)(F)F)cs3)c2)c1 [P182]
Ki (BaIMPDH (wild-type) [1]): 0.008 µM
Ki (CjIMPDH): 0.032 ± 0.006 µM

C/C(=N\O)c1cccc(C(C)(C)NC(=O)Nc2ccc(Cl)c(C(N)=O)c2)c1 [P32]
Ki (SpIMPDH): 0.164 ± 0.01 µM
Ki (CpIMPDH): 0.005 ± 0.002 µM
Ki (BaIMPDH (wild-type) [1]): 0.052 µM and 0.047 µM
Ki (CjIMPDH): 0.095 ± 0.005 µM
Ki (SaIMPDH): 0.023 ± 0.01 µM

Cn1nc(CC(=O)Nc2ccc3oc4c(c3c2)CCCC4)c2ccccc2c1=O [D67]
Kd (BaIMPDH (wild-type) [3]; [7]): 1.1 µM
Kd (BaIMPDH (wild-type) [3]; [8]): 0.42 µM
Ki (BaIMPDH (wild-type) [1]): 0.698 µM and 0.671 µM

O=c1[nH]c(=O)c2ncn([C@@H]3O[C@H](COP(=O)(O)O)[C@@H](O)[C@H]3O)c2[nH]1 [XMP, xanthosine 5′-monophosphate]
Kd (BaIMPDH (wild-type) [4]): 404 µM

O=C(Cn1c(-c2ccccn2)nc2ccccc21)Nc1ccc2ccccc2c1 [C91]
k-9 (BaIMPDH (wild-type) [3]): 0.0976
Kd (BaIMPDH (wild-type) [3]; [7]): 0.28 µM
Kd (BaIMPDH (wild-type) [3]; [8]): 0.11 µM
koff (BaIMPDH (wild-type) [3]; read-out: k-8): 0.239 s⁻¹
koff (BaIMPDH (wild-type) [3]; read-out: k-9): 0.0844 s⁻¹
fold more potent inhibitor of BaIMPDH (BaIMPDH (wild-type) [5]): 10 fold

C=C(C)c1cccc(C(C)(C)NC(=O)Nc2ccc(Cl)c(OC3OC(CO)C(O)C3O)c2)c1 (stereo not shown) [P178]
Ki (BaIMPDH (wild-type) [1]): 0.012 µM
Ki (CjIMPDH): 0.097 µM
difference in affinity across the three enzymes (Ba-, Cj-, and ClpIMPDH): > 5 fold

C[C@H](Oc1cccc2ccccc12)C(=O)Nc1ccc2oc(-c3ccncc3)nc2c1 [Q21]
preference for E-XMP* over E·IMP (BaIMPDH (wild-type) [3]): same affinity for both enzyme forms
Kd (BaIMPDH (wild-type) [3]; [7]): 0.038 µM
Kd (BaIMPDH (wild-type) [3]; [8]): 0.043 µM
Ki (BaIMPDH (wild-type) [1]): 0.063 µM and 0.023 µM

C[C@@H](Oc1cc[n+]([O-])c2ccccc12)c1cn(-c2ccc(Cl)cc2)nn1 [A110]
Kd (BaIMPDH (wild-type) [3]; [8]): 0.065 µM
Ki (BaIMPDH (wild-type) [1]): 0.081 µM and 0.059 µM
Kd (BaIMPDH (wild-type) [2]; k–8/k8): 1.7 µM
Kd (BaIMPDH (wild-type) [2]; k–9/k9): 0.085 µM
kon at 6 µM (BaIMPDH (wild-type) [2]; read-out: k8 (inhibitor association with E·IMP)): 9.33e+06 M⁻¹ s⁻¹
kon (BaIMPDH (wild-type) [2]; read-out: k9 (inhibitor association with E-XMP*)): 3.52e+06 M⁻¹ s⁻¹
koff (BaIMPDH (wild-type) [2]; read-out: k–8 (inhibitor dissociation from E·IMP·I)): 15.6 s⁻¹
koff (BaIMPDH (wild-type) [2]; read-out: k–9 (inhibitor dissociation from E-XMP*·I)): 0.3 s⁻¹

NC(=O)c1ccc[n+]([C@@H]2O[C@H](COP(=O)([O-])OP(=O)(O)OC[C@H]3O[C@@H](n4cnc5c(N)ncnc54)[C@H](O)[C@@H]3O)[C@@H](O)[C@H]2O)c1 [NAD^+]
apparent Michaelis constant for NAD+, KmB (BaIMPDH (wild-type) [6]): 683 [ 601 , 779 ] µM
Ki (BaIMPDH (wild-type) [6]; read-out: Ki(NAD^+)): 9600 ± 2100 µM
Km (BaIMPDH (wild-type) [6]; read-out: Km(NAD^+)): 590 ± 100 µM
k2 (NAD^+ association with E·IMP) (BaIMPDH (wild-type) [2]): 0.0309 μM^–1 s^–1
k7 (NAD^+ association with E-XMP*) (BaIMPDH (wild-type) [2]): 0.00398 μM^–1 s^–1
k–2 (NAD^+ dissociation from E·IMP·NAD^+) (BaIMPDH (wild-type) [2]): 11.7 s^–1
k–7 (NAD^+ dissociation from E-XMP*·NAD^+) (BaIMPDH (wild-type) [2]): 31.8 s^–1
Kd (BaIMPDH (wild-type) [2]; read-out: k–2/k2): 380 µM
Kd (BaIMPDH (wild-type) [2]; read-out: k–7/k7): 8000 µM
